From ChEMBL document CHEMBL5260828, “Amphiphilic glycoconjugates as potential anti-cancer chemotherapeutics” (Eur J Med Chem, 2018)
In brackets after ≈: the same amount, converted by molar mass.

Legend:
K562 [1] = experiment: Antiproliferative activity against human K562 cells assessed as reduction in cell viability incubated for 48 hrs by CCK-8 assay; format: functional, cell-based; details: K562, 48 h
MCF7 [2] = experiment: Antiproliferative activity against human MCF7 cells assessed as inhibition of cell growth incubated for 48 hrs; format: functional, cell-based; details: MCF7, 48 h, pooled result: one value given for 9 cell lines, strains, targets or settings
DU-145 = experiment: Cytotoxicity against human DU-145 cells assessed as reduction in cell viability incubated for 48 hrs by MTS assay; format: functional, cell-based; details: DU-145, time 48 hrs
JIMT-1 = experiment: Cytotoxicity against human JIMT-1 cells assessed as reduction in cell viability incubated for 48 hrs by MTS assay; format: functional, cell-based; details: JIMT-1, time 48 hrs
MIA PaCa-2 = experiment: Cytotoxicity against human MIA PaCa-2 cells assessed as reduction in cell viability incubated for 48 hrs by MTS assay; format: functional, cell-based; details: MIA PaCa-2, time 48 hrs
BT-474 = experiment: Cytotoxicity against human BT-474 cells assessed as reduction in cell viability incubated for 48 hrs by MTS assay; format: functional, cell-based; details: BT-474, time 48 hrs
[3] = molecular target: RAC-alpha serine/threonine-protein kinase (Homo sapiens, UniProt P31749); experiment: Inhibition of AKT1 (unknown origin) in presence of ATP by ELISA
IGROV-1 [4] = experiment: Antiproliferative activity against human IGROV-1 cells assessed as inhibition of cell growth incubated for 72 hrs by Coulter counter assay; format: functional, cell-based; details: IGROV-1, 72 h
IGROV-1 [5] = experiment: Antiproliferative activity against human IGROV-1 cells assessed as inhibition of cell growth incubated for 72 hrs in serum-free medium by Coulter counter assay; format: functional, cell-based; details: IGROV-1, 72 h
NCI-H292 = experiment: Cytotoxicity against human NCI-H292 cells assessed as reduction in cell viability incubated for 4 days by WST-1 assay; format: functional, cell-based; details: NCI-H292, 96 h
Jurkat = experiment: Inhibition of cell growth in human Jurkat cells at 25 ug/ml; format: functional
MCF7 [6] = experiment: Growth inhibition of human MCF7 cells incubated for 72 hrs by sulforhodamine B staining assay; format: functional
[7] = Growth inhibition of mouse Lewis lung carcinoma cell line incubated for 72 hrs by sulforhodamine B staining assay; format: functional
L1210 = experiment: Growth inhibition of mouse L1210 cells incubated for 72 hrs by sulforhodamine B staining assay; format: functional
NCI/ADR-RES = experiment: Growth inhibition of human multi-drug resistant MCF7/Adr cells incubated for 72 hrs by sulforhodamine B staining assay; format: functional
[8] = molecular target: Sarcoplasmic/endoplasmic reticulum calcium ATPase 1 (Oryctolagus cuniculus, UniProt P04191); experiment: Inhibition of SERCA1a in rabbit Sarcoplasmic reticulum assessed as inhibition constant in presence of [gamma-32P]ATP and calcium ionophore A23187 by coupled enzyme assay; format: subcellular
HeLa S3 [9] = experiment: Cytotoxicity against human HeLa S3 cells assessed as inhibition of cell proliferation incubated for 72 hrs by MTT assay; format: functional, cell-based; details: HeLa S3, 72 h
HeLa = experiment: Cytotoxicity against human HeLa cells assessed as inhibition of cell growth incubated for 24 hrs by MTT assay; format: functional, cell-based
Ca-Ski = experiment: Cytotoxicity against human Ca-Ski cells assessed as inhibition of cell growth incubated for 24 hrs by MTT assay; format: functional, cell-based
KB = experiment: Cytotoxicity against human KB cells assessed as cell growth inhibition incubated for 24 hrs by MTT assay; format: functional, cell-based
A549 = experiment: Cytotoxicity against human A549 cells assessed as cell growth inhibition incubated for 24 hrs by MTT assay; format: functional, cell-based; details: A549, 24 h
Col2 = experiment: Cytotoxicity against human Col2 cells assessed as cell growth inhibition incubated for 24 hrs by MTT assay; format: functional, cell-based; details: Col2, 24 h
K562 [10] = experiment: Cytotoxicity against human K562 cells assessed as cell growth inhibition incubated for 24 hrs by MTT assay; format: functional, cell-based; details: K562, 24 h
MDA-MB-231 [11] = experiment: Cytotoxicity against human MDA-MB-231 cells assessed as cell growth inhibition incubated for 24 hrs by MTT assay; format: functional, cell-based; details: MDA-MB-231, 24 h
HeLa S3 [12] = experiment: Cytotoxicity against human HeLa S3 cells assessed as cell growth inhibition incubated for 48 hrs by MTT assay; format: functional, cell-based; details: HeLa S3, 48 h
HEp-2 = experiment: Cytotoxicity against human HEp-2 cells assessed as cell growth inhibition by measuring effective dose; format: functional; details: read-out: ED50 (the source's name)
MCF7 [13] = experiment: Inhibition of cell growth in human MCF7 cells at 6 ug/ml incubated for 96 hrs; format: functional
MDA-MB-231 [14] = experiment: Inhibition of cell growth in human MDA-MB-231 cells at 6 ug/ml incubated for 96 hrs; format: functional

Chain of RAC-alpha serine/threonine-protein kinase (P31749 whole entry): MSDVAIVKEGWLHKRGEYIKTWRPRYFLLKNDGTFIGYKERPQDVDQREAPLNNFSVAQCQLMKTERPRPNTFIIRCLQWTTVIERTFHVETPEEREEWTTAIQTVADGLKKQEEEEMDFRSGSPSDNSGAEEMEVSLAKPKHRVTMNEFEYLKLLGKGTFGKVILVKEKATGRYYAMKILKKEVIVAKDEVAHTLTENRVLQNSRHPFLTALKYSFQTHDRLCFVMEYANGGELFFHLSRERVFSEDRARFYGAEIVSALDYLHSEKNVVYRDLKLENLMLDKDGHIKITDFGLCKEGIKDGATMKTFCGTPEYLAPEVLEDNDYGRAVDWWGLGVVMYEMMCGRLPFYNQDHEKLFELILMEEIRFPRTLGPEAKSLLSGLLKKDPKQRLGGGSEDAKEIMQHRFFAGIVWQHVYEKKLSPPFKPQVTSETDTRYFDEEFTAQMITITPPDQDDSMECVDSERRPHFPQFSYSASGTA
Chain of Sarcoplasmic/endoplasmic reticulum calcium ATPase 1 (P04191 whole entry): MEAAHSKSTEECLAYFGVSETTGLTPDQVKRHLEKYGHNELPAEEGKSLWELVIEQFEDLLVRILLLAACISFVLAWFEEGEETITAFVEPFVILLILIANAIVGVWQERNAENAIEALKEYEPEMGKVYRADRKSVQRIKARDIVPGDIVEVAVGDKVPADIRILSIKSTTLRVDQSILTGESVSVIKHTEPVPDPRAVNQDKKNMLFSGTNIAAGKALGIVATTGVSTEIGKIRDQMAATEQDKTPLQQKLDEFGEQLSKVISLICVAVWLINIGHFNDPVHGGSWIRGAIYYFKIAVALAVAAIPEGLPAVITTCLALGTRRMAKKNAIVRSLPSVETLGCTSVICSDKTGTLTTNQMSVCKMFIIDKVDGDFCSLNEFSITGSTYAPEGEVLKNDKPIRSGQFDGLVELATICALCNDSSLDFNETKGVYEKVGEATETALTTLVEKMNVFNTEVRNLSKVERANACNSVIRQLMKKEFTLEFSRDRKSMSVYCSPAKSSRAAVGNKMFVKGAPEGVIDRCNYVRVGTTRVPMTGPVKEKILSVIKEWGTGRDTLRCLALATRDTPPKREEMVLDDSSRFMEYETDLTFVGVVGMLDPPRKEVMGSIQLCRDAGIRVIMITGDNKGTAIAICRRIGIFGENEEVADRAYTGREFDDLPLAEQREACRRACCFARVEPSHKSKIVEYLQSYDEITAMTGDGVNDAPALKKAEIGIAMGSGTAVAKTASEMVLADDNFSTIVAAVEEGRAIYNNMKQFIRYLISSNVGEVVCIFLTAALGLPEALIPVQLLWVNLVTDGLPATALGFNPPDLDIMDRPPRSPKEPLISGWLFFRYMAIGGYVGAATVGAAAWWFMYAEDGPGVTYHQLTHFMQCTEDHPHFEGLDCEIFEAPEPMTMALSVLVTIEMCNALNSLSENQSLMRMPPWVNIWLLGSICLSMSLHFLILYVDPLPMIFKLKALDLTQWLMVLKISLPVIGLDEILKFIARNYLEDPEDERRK

Work on `CCCCCCCCCCN1C[C@@H](O)[C@@H](O)C1` yielded an IC50 (K562 [1]) of 17.7 µM.

Work on `CCCCCCCCCCCCCCCCOC[C@H](CO[C@@H]1O[C@H](CO)[C@@H](O)[C@H](O)[C@H]1N)OC` yielded an IC50 (MCF7 [2]) of 4.1 µM, a CC50 (DU-145) of 10 µM and a CC50 (JIMT-1) of 9 µM. The CC50 (MIA PaCa-2) was 9 µM and the CC50 (BT-474) was 8 µM.

For `CCCCCCCCCCCCCCCCCOC(=O)O[C@H](COC(=O)CCCCCCCCCCCCCCCCC)COP(=O)(O)O[C@@H]1[C@H](O)[C@H](OP(=O)(O)O)[C@@H](O)[C@H](O)[C@H]1O`, the IC50 [3] was 19.7 µM, the IC50 (IGROV-1 [4]) was 49 µM and the IC50 (IGROV-1 [5]) was 3.35 µM.

With `COC[C@@H](C[C@H]1O[C@@](O)([C@H](O)[C@@H]2C[C@H](OC)[C@@H](O)CC/C=C(C)/C=C/[C@@H](O[C@@H]3O[C@@H](C)[C@H](OC)[C@@H](O)[C@@H]3O)[C@H](C)/C=C(C)/C=C(C)/C=C(/C)C(=O)O2)[C@H](C)[C@@H](O)[C@H]1C)O[C@H]1C[C@](C)(O)[C@@H](O[C@H]2C[C@@H](OC)[C@H](O)[C@@H](C)O2)[C@H](C)O1` the EC50 (NCI-H292) was 0.15 µM.

For `CCCCOC(=O)CCCCCCC/C=C/CCCCCC[C@H](C)O[C@@H]1O[C@H](COC(C)=O)[C@@H](O)[C@H](O)[C@H]1O[C@@H]1O[C@H](COC(C)=O)[C@@H](O)[C@H](O)[C@H]1O`, the inhibition at 25 µg/mL (Jurkat) was 99.7%.

Work on `CCCCCCCCCCCCCCCCOC[C@H](CO[C@H]1C[C@@H](O)[C@H](O)[C@@H](CO)O1)OC` yielded a GI50 (MCF7 [6]) of 6.93 µM, a GI50 [7] of 11.1 µM and a GI50 (L1210) of 7.09 µM. For the same compound, the GI50 (NCI/ADR-RES) was 12.8 µM.

In the case of `C/C=C/C/C(C)=C\[C@H]1C[C@H]2C=C[C@H](C[C@H](C)/C=C(\C)[C@@H](OC)C/C=C/[C@@H](O[C@@H]3O[C@H](CO)[C@@H](O)[C@H](OC)[C@H]3O)CC(=O)O1)OO2`, the Ki [8] is reported as 0.018 µM and the IC50 (HeLa S3 [9]) is reported as greater than 10 µM.

With `CC(=O)OC[C@H]1O[C@H]2O[C@@H](C)CCCCCC/C=C/CCCCCC(=O)O[C@@H]3[C@@H](O)[C@H](O[C@@H]2[C@@H](O)[C@@H]1O)O[C@H](COC(C)=O)[C@H]3O` the IC50 (HeLa) was 62.9 µg/mL (≈ 95.3 µM) and the IC50 (Ca-Ski) was 82.2 µg/mL (≈ 124 µM).

With `CCCCCCCCO[C@@H]1O[C@@H](C)[C@H](OC(=O)CCCCC)[C@@H](O[C@@H]2O[C@@H](C)[C@H](OC(C)=O)[C@@H](O[C@@H]3O[C@@H](C)[C@H](OC(C)=O)[C@@H](O[C@@H]4O[C@@H](C)[C@H](O)[C@@H](O)[C@H]4O)[C@H]3OC(C)=O)[C@H]2OC(C)=O)[C@H]1O` the IC50 (KB) was 0.7 µM, the IC50 (A549) was 0.7 µM and the IC50 (Col2) was 0.7 µM. The IC50 (K562 [10]) was 0.7 µM and the IC50 (MDA-MB-231 [11]) was 0.7 µM.

In the case of `C/C=C\C/C=C\C/C=C\C/C=C\C/C=C\CCCC(=O)OCC(CO[C@H]1O[C@H](CS(=O)(=O)O)[C@@H](O)[C@H](O)[C@H]1O)OC(=O)CCCCCCCCCCCCCCC` (stereo partly drawn), the IC50 (HeLa S3 [12]) is reported as 80 µM.

`CCCCCCCCCCCC(=O)O[C@@H]1[C@@H](O)[C@@H](OC(=O)/C=C/c2ccccc2)[C@H](O[C@@H]2[C@@H](O)[C@@H](OC(=O)[C@@H](C)CC)[C@H](O[C@@H]3[C@@H](O)[C@H]4OC(=O)CCCCCCCCC[C@@H](CCCCC)O[C@@H]5O[C@H](CO)[C@@H](O)[C@H](O)[C@H]5O[C@@H]4O[C@H]3C)O[C@H]2C)O[C@H]1C` showed an EC50 (HEp-2) of 3.5 µg/mL (≈ 2.8 µM).

`CC/C=C\C/C=C\C/C=C\CCCCCCCC(=O)OC[C@@H](CO[C@@H]1O[C@H](CO)[C@H](O)[C@H](O)[C@H]1O)OC(=O)CCCCCCC/C=C\C/C=C\C/C=C\CC` gave an inhibition at 6 µg/mL (MCF7 [13]) of 90% and an inhibition at 6 µg/mL (MDA-MB-231 [14]) of 90%.
